Laboratory results as given in paper PMC12040169 (PLOS Biology, 2025).

Assay: in vitro
Conditions: human, hela cells, % viability

| SMILES | viability at 28.5 h, 10 µM [%] |
| --- | --- |
| Cc1ccsc1C(=O)N1CCC(c2nn(C)c3ncccc23)CC1 [CBK285102] | 96.6 |
| CC(C)(C)Nc1c(C2CCCN(C(=O)C3CC3)C2)nc2ccccn12 (centres unmarked) [CBK284759] | 105 |
| O=C(COc1ccc(Br)cc1)Nc1ccc(Cl)c(-c2nc3ccccc3[nH]2)c1 [CBK263075] | 92 |
| CC(Sc1nc(-c2ccccc2)nc2ccccc12)C(=O)Nc1ccccc1C(F)(F)F (centres unmarked) [CBK265795] | 103 |
| O=S(=O)(Nc1cc(NCCCN2CCOCC2)c2occc2c1)c1ccccc1C(F)(F)F [CBK067838C] | 94.9 |
| COc1cccc(CNCc2ccccc2[N+](=O)[O-])c1OC [CBK262198] | 98 |
| O=C1CC(c2cccnc2)c2sc(N3CCOCC3)nc2N1 (centres unmarked) [CBK287927] | 105 |
| CC(NC(=O)c1cc(C(F)(F)F)n(C)n1)c1cccnc1 (centres unmarked) [CBK282203] | 97.6 |
| OCc1ccccc1-c1cncc(NCc2cccs2)n1 [CBK065345] | 104 |
| O=P(O)(CCc1ccccc1)CN1CCCCC1 [CBK262318] | 78.6 |
| c1ccc(Nc2[nH]nnc2-c2ccccc2)cc1 [CBK261015] | 116 |
| O=C(NCCN1CCOCC1)c1cnn2c(-c3ccccc3)cc(-c3ccccc3)nc12 [CBK263062] | 94.5 |
| CN1CCN(C(=O)c2ccc(Cl)c(S(=O)(=O)N3CCCCC3)c2)CC1 [CBK262228] | 94.7 |
| CCCc1ccc(S(=O)(=O)Nc2nc(C)c(C(=O)O)s2)cc1 [CBK045555] | 88.3 |
| O=S(=O)(N1CCCCCC1)n1ccnc1 [CBK269241] | 92.1 |
| O=C(N/N=C\c1cccc2ccccc12)c1ccc(CO)nc1 [CBK261377] | 104 |
| O=C(CNS(=O)(=O)c1ccc(Br)cc1)NCc1cccnc1 [CBK266295] | 97.2 |
| CCN1CCC(NC(=O)CSc2nc3ccccc3n2CC(C)C)CC1 [CBK304995] | 106 |
| Cc1nc(CCC(=O)N2Cc3cnn(Cc4ccc(F)cc4)c3C2)n[nH]1 [CBK306993] | 109 |
| CCC(NC(=O)C(c1cccs1)c1cccs1)c1ccc(F)cc1 (centres unmarked) [CBK286339] | 93.4 |
| CC(C)[C@@H](CO)Nc1cncc(-c2ccc3ccccc3c2)n1 [CBK065546] | 100 |
| Cc1cccc(-c2ncc(NC(=O)CCOc3ccccc3)nc2-c2ccc(N)cc2)c1 [CBK036655] | 113 |

| SMILES | viability at 28.5 h, 10 µM [%] |
| --- | --- |
| O=c1[nH]c2ccccc2n1CCCN1CCC[C@@H]1CN1CCCC1 [CBK137111T] | 93.5 |
| CN(C)c1ccc(-c2nc(-c3cccc(OC(F)(F)F)c3)cnc2N)cc1 [CBK063942] | 98.3 |
| Cc1nn(Cc2ccc(Cl)cc2)c(C)c1NC(=O)CCC(=O)O [CBK287051] | 88.5 |
| CN(C)c1cccc(C(=O)Nc2cnc(-c3cccc(C(F)(F)F)c3)c(-c3cccnc3)n2)c1 [CBK036752] | 90.4 |
| O=S(=O)(NCCNc1ncc(C(F)(F)F)cc1Cl)C(F)(F)F [CBK008366] | 109 |
| O=C(O)c1cc(Cl)c2c(c1)[C@@H]1C=CC[C@@H]1[C@H](c1cccc(Br)c1)N2 [CBK077927] | 106 |
| CN1C2CCC1CC(OC(c1ccccc1)c1ccccc1)C2 (centres unmarked) [CBK011710G] | 99.6 |
| COc1ccnc(N2CCN(C(=O)c3ccncc3Cl)CC2)n1 [CBK304367] | 102 |
| CC1CCN(S(=O)(=O)c2ccc(Oc3ccc([N+](=O)[O-])cc3)cc2)CC1 [CBK261774] | 98 |
| CCc1nc2ccc(C(=O)Nc3ccc(C(N)=O)cc3)cn2c1N(CCN(C)C)CC1CC1 [CBK145468] | 87.1 |
| O=C(c1ccccn1)c1ccccn1 [CBK010601] | 89 |
| O=C(NCc1cccs1)c1ccc(-c2ccc(OC(F)(F)F)cc2)nc1 [CBK156221] | 90 |
| Cn1nccc1C1CCN(Cc2ccc(Oc3cnccn3)cc2)CC1 [CBK306400] | 104 |
| COc1cc(/C=N\NC(=O)CSc2nc3ccccc3o2)ccc1O [CBK263630] | 86.5 |
| COc1ccc(C(=O)CN2CCC3(CC2)CC(=O)c2cc(Br)ccc2O3)cc1 [CBK162265] | 114 |
| O=C1Nc2cc(C(F)(F)F)ccc2N2CCCC12 (centres unmarked) [CBK288125] | 99.7 |
| COC(=O)C1=C(C)OC(n2cccc2)=C(C#N)C1c1cc(OC)c(O)c(OC)c1 (centres unmarked) [CBK293994] | 101 |
| O=C(CN1CCOCC1)Nc1ccc(S(=O)(=O)Nc2cc(Cl)cc(Cl)c2)cc1 [CBK001239] | 89.1 |
| CC(C)Oc1ccc(C(=O)N2CC(C)C(N3CCOCC3)C2)cn1 (centres unmarked) [CBK304497] | 110 |
| COc1ccc2c(c1)C(=O)NC1(CC2)CCN(Cc2ccccc2)C1 (centres unmarked) [CBK283343] | 95.2 |
| S=C(NCCc1ccccc1)Nc1ccc2c(c1)OCCO2 [CBK267048] | 110 |
| O=C(Nc1ccnn1Cc1ccccc1)C1CC(c2cccc(F)c2)=NO1 (centres unmarked) [CBK297772] | 112 |

| SMILES | viability at 28.5 h, 10 µM [%] |
| --- | --- |
| Cc1ccc(C2(CN3CCN(Cc4cnc(C)n4C)CC3)CC2)cc1 [CBK282469] | 93.5 |
| Cc1cc(Cl)ccc1OC(C)C(=O)NCc1ccccn1 (centres unmarked) [CBK265441] | 98.8 |
| CC1=CC(=O)Nc2ccccc2S1 [CBK028872] | 118 |
| Cc1cc(C)n(CC(C)NC(=O)C(c2ccccc2)N2CCCC2)n1 (centres unmarked) [CBK281645] | 82.1 |
| CC1Oc2ccccc2OC1C(=O)Nc1ccc([N+](=O)[O-])cc1Cl (centres unmarked) [CBK269412] | 85.8 |
| O=C(CCSc1c(Cl)cccc1[N+](=O)[O-])Nc1ccc(Br)c2cccnc12 [CBK266777] | 101 |
| CCCC(=O)NC1CC(C)(C)Cc2nc(N3CCOCC3)ncc21 (centres unmarked) [CBK306883] | 94.7 |
| CCCC/C=C/c1cnc(N)c(Nc2ccc(OC)cc2)n1 [CBK063890] | 93.9 |
| O=C(Nc1ccc(S(=O)(=O)Nc2ccc(Cl)c(C(F)(F)F)c2)cc1)c1ccc(CN2CCOCC2)cc1 [CBK264777] | 104 |
| Cc1ccc2[nH]c(SCC(=O)Nc3ccc(C(=O)O)cc3)nc2c1 [CBK297526] | 85.7 |
| Cc1nnc2sc(-c3ccccc3NC(=S)NC(=O)c3cc4ccccc4o3)nn12 [CBK268845] | 103 |
| CCOC(=O)c1cccc(NS(=O)(=O)c2cccc3cccnc23)c1 [CBK034345] | 57.2 |
| CC1=NNC(=O)C1C(c1ccc(Cl)cc1Cl)C1C(=O)NN=C1C (centres unmarked) [CBK067756] | 109 |
| Cc1cc(Cl)ccc1CNS(=O)(=O)c1cccs1 [CBK044714] | 97 |
| COc1ccc(CCC(C)N2CCN(c3ccc(F)cc3)CC2)cc1 (centres unmarked) [CBK261922] | 103 |
| O=C(CSc1nnc(CN2CCOCC2)n1-c1ccc(Cl)cc1)N1CCN(c2ccccc2)CC1 [CBK269088] | 96.9 |
| CN(C)[C@@H]1CN(Cc2ccc(O)cc2)C[C@H]1c1cn(C)c2ccccc12 [CBK284952] | 108 |
| Cc1cc(C)n2nc(SCC(=O)O)nc2n1 [CBK268536] | 111 |
| CS(=O)(=O)Nc1nccnc1N1CCN(Cc2ccc([N+](=O)[O-])cc2)CC1 [CBK084274] | 103 |
| Cc1ccc(S(=O)(=O)N/C(=N/C(C)C(=O)O)c2ccccc2)cc1 (centres unmarked) [CBK263099] | 92.2 |
| Cc1[nH]nc(O)c1Cc1ccccc1F [CBK105306] | 97.1 |
| O=C(NCc1ccc2c(c1)OCO2)N1CCCC(CO)C1 (centres unmarked) [CBK156034] | 104 |

| SMILES | viability at 28.5 h, 10 µM [%] |
| --- | --- |
| C=C(C)Cn1c(SC(C)C)nnc1-c1ccccc1Cl [CBK200079] | 99.9 |
| COc1ccc(CCNCC2OCCc3cccc(OC)c32)cc1OC (centres unmarked) [CBK024032C] | 118 |
| CCN(CC1CCOC1)C(=O)c1cn2ccccc2n1 (centres unmarked) [CBK305653] | 83.5 |
| Cc1c(Cl)cccc1S(=O)(=O)Nc1ccsc1C(=O)O [CBK004549] | 97.7 |
| O=C(/C=C/c1ccccc1)Nc1cccc(C(=O)O)c1 [CBK287193] | 94 |
| CCCC1CCCN(Cc2nnnn2-c2ccc(S(C)(=O)=O)cc2)C1 (centres unmarked) [CBK304142] | 89.2 |
| CCN1C(=O)N(CC)C2C1NC(=O)N2CCCC(=O)O (centres unmarked) [CBK287131] | 89.3 |
| CCN(CC)CCSc1nc2sc3c(c2c(=O)n1-c1ccccc1)CC(C)(C)OC3 [CBK263728] | 96.6 |
| Cc1cc(CC(=O)N2CCN(C(=O)c3ccco3)CC2)on1 [CBK144465] | 96.3 |
| CCc1nn(CC(=O)N(C(C)C)C(C)C)c(=O)c2cc3occc3n12 [CBK283658] | 89.3 |
| Cc1ccc(C2=CCN(CC(=O)Nc3ccc(N(C)C)cc3)CC2)o1 [CBK283604] | 95.5 |
| COc1cc(C)c(CN2CCN(S(=O)(=O)c3cc(C(=O)O)cs3)CC2)cc1OC [CBK297093] | 97.2 |
| CN1CCN(S(=O)(=O)c2cccc(C(F)(F)F)c2)CC1 [CBK062425] | 103 |
| Cc1ncc(CN(Cc2ccccn2)Cc2ccccc2Cl)n1C [CBK282128] | 97.6 |
| COc1ccc(OC)c(NC(=O)CSc2nnc(-c3cccnc3)s2)c1 [CBK269043] | 78.3 |
| Cc1ccc(S(=O)(=O)N2CCN(c3ccc([N+](=O)[O-])c(N4CCN(C)CC4)c3)CC2)cc1 [CBK264795] | 118 |
| CN1CCc2c(sc3nc(SCC(=O)c4ccccc4)n(-c4ccccc4)c(=O)c23)C1 [CBK262586] | 85.8 |
| Cc1ccc(SCC(=O)Nc2cc([N+](=O)[O-])ccc2O)cc1 [CBK268655] | 123 |
| COc1ccc(C(CNC(=O)C(=O)Nc2ccc(C(=O)O)cc2)N(C)C)cc1 (centres unmarked) [CBK286724] | 119 |
| NC1=NNC2=C(c3ccc(F)cc3)NNN12 [CBK093659] | 86 |
| COC(=O)c1cccc2c1ncc1c(=O)nc(N)sc12 [CBK291214] | 101 |
| O=C(c1ccco1)N1CCC(c2ccnc3nc4ccccc4n23)CC1 [CBK284490] | 87.2 |

Same assay, conditions: human, hela cells, % viability, bulk resorufin, single well

| SMILES | viability at 28.5 h, 10 µM [%] |
| --- | --- |
| COc1ccc2c(c1)COC1(CCN(C(=O)NC(=O)c3ccccc3)CC1)O2 [CBK060804] | 95.7 |
